Measured values from PMC4978154, “Phase I metabolites of mephedrone display biological activity as substrates at monoamine transporters” (British Journal of Pharmacology, 2016).
Where “and” joins values, the source holds several entries; their conditions need not be identical. Equal entries are not always repeated.

Assays:
Format in all cases: cell-based
[1] = biological target: T1, hDAT (Homo sapiens, UniProt Q01959); experiment: Transporter release (superfusion) assay in HEK293 cells expressing hDAT
T1 construct: expressed in transfected cells
T1 sequence (Q01959 whole entry, the tested form may be a part): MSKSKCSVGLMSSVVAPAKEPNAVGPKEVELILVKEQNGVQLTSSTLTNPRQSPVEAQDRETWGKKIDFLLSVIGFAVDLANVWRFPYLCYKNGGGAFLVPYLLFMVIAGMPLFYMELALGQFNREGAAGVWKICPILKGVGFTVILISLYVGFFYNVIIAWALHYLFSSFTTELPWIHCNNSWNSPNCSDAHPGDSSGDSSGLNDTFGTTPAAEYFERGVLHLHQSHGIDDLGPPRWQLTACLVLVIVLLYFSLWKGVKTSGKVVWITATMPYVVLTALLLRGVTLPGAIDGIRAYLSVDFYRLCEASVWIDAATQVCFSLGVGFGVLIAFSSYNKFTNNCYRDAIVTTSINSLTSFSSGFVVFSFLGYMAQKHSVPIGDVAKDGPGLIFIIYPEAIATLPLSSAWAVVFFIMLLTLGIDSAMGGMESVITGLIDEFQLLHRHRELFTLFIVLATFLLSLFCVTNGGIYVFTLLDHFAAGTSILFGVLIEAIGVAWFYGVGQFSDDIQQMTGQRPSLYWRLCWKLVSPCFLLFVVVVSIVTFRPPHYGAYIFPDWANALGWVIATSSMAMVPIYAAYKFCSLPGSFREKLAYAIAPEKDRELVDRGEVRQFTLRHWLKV
Experimental: (§1) The generation of HEK293 cells stably expressing the human isoforms of DAT (hDAT) and NET (hNET) was carried out as described previously (Scholze et al., 2002). For SERT, the human isoform (hSERT) was cloned in frame with yellow fluorescent protein (Schmid et al., 2001). The generation of a stable cell line was performed as described by Hilber and colleagues (Hilber et al., 2005). HEK293 cells were maintained in humidified atmosphere (5% CO2, 37°C) in DMEM, supplemented with 10% heat‐inactivated FBS and penicillin (100 u 100 mL^−1) and streptomycin (100 μg 100 mL^−1). Selection pressure was maintained by adding geneticin (50 μg·mL^−1) to the cell culture media.
(§2) Superfusion experiments were performed as described previously (Scholze et al., 2002). Briefly, HEK293 cells expressing the desired transporter were seeded at a density of 40 000 cells per well onto poly‐D‐lysine‐coated 5 mm glass cover slips in 96‐well plates 24 h prior to the experiment. Cells were preloaded with [^3H]‐MPP^+ (0.1 μM, hDAT and hNET) or [^3H]‐5‐HT (0.4 μM, hSERT) for 20 min at 37°C in a final volume of 100 μL per well. Subsequently, glass coverslips were transferred into small superfusion chambers (volume of 200 μL) and superfused with KHB at 25°C with a superfusion rate of 0.7 mL·min^−1 for 40 min to establish a stable basal efflux. After washout, the collection of 2‐min fractions was initiated. After the first three basal fractions, monensin (10 μM) or solvent was added for four fractions. Consequently, the cells were challenged with test drugs (10 μM) for five fractions in the presence or absence of monensin. Finally, the cells were lysed in 1% SDS to determine the total radioactivity. Radioactivity per fraction was assessed by a liquid scintillation counter and expressed as fractional release, that is, the percentage of released ^3H in relation to total ^3H present at the beginning of the fraction (Sitte et al., 2000). For analysis, release was expressed as AUC.
(§3) Calculations were performed using Microsoft Excel® 2010 (Microsoft Corporation, Redmond, WA, USA) and GRAPHPAD PRISM 5.0. (GraphPad Software Inc., La Jolla, CA, USA). IC50 values for uptake inhibition and EC50 values for release were determined by nonlinear regression fits. Release data expressed as AUC were analysed by one‐way ANOVA followed by Bonferroni's multiple comparison test. Microdialysis and locomotor data were analysed by two‐way ANOVA (drug treatment × time) followed by Bonferroni's test. The effect of monensin treatment on basal efflux of tritiated substrate was analysed with the Mann–Whitney test. P values less than 0.05 (i.e. P < 0.05) were considered significant. The data and statistical analysis comply with the recommendations on experimental design and analysis in pharmacology (Curtis et al., 2015).
Data from uptake inhibition assays cannot distinguish whether test drugs act as non‐transported inhibitors or transportable substrates, which evoke release (Scholze et al., 2000; Sitte et al., 2000; Baumann et al., 2013). Therefore, mephedrone and its metabolites were tested in release assays to further explore their interaction with transporters. The release assays were performed with the same transporter‐expressing HEK293 cell lines described above and used a superfusion system (Sitte et al., 2000). As described previously, efflux of preloaded [^3H]‐MPP^+ or [^3H]‐5‐HT was monitored in the presence or absence of monensin (10 μM) (Scholze et al., 2000). […]

[2] = biological target: T1, hDAT; experiment: Transporter uptake inhibition in HEK293 cells expressing hDAT; conditions: [3H]-MPP+ uptake
Experimental: as §1
(§4) Uptake experiments were conducted as described previously (Sitte et al., 2001) with minor modifications. In brief, HEK293 cells expressing hDAT, hNET or hSERT were seeded into poly‐D‐lysine (PDL) coated 96‐well plates at a density of 40 000 cells per well. The next day, DMEM was aspirated and replaced with Krebs HEPES buffer (KHB, 25 mM HEPES, 120 mM NaCl, 5 mM KCl, 1.2 mM CaCl2, and 1.2 mM MgSO4, 5 mM D‐glucose, pH adjusted to 7.3 with NaOH) (200 μL per well), and cells were pre‐incubated with various concentrations of mephedrone or its metabolites for 5 min (50 μL per well). Subsequently, 0.1 μM of [^3H]‐5‐HT or 0.02 μM of [^3H]‐MPP^+ were added, and uptake was terminated after 1 (hSERT) or 3 min (hDAT, hNET) by washing the cells with 200 μL of ice‐cold KHB. Cells were lysed with 1% SDS, and tritium uptake was determined by scintillation counting. Nonspecific uptake was determined in the presence of 10 μM paroxetine (hSERT) or 10 μM mazindol (hDAT and hNET).
as §3

[3] = biological target: T2, hNET (Homo sapiens, UniProt P23975); experiment: Transporter uptake inhibition in HEK293 cells expressing hNET; conditions: [3H]-MPP+ uptake
T2 construct: expressed in transfected cells
T2 sequence (P23975 whole entry): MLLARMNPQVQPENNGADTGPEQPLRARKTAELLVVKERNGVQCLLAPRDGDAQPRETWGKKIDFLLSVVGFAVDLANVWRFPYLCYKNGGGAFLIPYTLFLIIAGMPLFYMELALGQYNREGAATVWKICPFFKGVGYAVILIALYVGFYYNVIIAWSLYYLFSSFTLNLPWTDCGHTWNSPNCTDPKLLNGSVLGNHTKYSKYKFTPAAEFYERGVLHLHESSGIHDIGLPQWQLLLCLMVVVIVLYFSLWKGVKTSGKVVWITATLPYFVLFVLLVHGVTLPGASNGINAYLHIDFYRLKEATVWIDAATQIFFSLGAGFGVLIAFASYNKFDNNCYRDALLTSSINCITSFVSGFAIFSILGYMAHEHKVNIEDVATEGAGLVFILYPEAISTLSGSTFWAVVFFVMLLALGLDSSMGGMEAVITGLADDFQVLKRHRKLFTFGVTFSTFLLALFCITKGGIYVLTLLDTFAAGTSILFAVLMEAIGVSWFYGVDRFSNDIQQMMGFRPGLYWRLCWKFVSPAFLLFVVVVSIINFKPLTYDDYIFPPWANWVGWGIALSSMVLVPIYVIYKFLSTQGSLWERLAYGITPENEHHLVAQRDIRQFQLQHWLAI
Experimental: as §1, §4
as §3, with “GRAPHPAD” left out

[4] = biological target: T2, hNET; experiment: Transporter release (superfusion) assay in HEK293 cells expressing hNET; conditions: test drug 10 μM, monensin 10 μM; post hoc Bonferroni
Experimental: as §1
as §2, with “Consequently, the cells were challenged with test drugs (10 μM) for five fractions in the presence or absence of monensin.” left out
as §3, with “(GraphPad Software Inc., La Jolla, CA, USA).” left out, “P values less than 0.05 (i.e. P < 0.05) were considered significant. The data and statistical analysis comply with the recommendations on experimental design and analysis in pharmacology (Curtis et al., 2015).” left out
Data from uptake inhibition assays cannot distinguish whether test drugs act as non‐transported inhibitors or transportable substrates, which evoke release (Scholze et al., 2000; Sitte et al., 2000; Baumann et al., 2013). […] As described previously, efflux of preloaded [^3H]‐MPP^+ or [^3H]‐5‐HT was monitored in the presence or absence of monensin (10 μM) (Scholze et al., 2000). […]

[5] = biological target: T3, hSERT (Homo sapiens, UniProt P31645); experiment: Transporter uptake inhibition in HEK293 cells expressing hSERT; conditions: [3H]-5-HT uptake
T3 construct: yellow fluorescent protein (YFP); expressed in transfected cells
T3 sequence (P31645 whole entry): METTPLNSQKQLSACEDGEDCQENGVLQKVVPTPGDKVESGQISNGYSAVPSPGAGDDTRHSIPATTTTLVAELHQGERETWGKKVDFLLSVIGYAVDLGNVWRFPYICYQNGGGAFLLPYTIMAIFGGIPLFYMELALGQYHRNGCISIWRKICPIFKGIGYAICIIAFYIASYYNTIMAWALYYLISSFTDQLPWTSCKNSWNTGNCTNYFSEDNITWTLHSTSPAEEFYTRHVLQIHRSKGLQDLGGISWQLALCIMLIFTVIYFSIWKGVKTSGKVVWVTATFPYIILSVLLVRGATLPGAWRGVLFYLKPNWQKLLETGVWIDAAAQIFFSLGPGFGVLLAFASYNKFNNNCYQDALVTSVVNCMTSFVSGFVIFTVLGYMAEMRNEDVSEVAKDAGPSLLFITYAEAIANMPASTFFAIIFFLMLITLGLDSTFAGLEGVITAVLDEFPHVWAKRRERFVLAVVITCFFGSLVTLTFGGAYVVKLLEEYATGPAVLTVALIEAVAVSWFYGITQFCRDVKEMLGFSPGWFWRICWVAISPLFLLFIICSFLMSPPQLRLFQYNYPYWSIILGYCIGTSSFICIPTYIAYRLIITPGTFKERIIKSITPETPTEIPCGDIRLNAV
Experimental: as §1, §4, §3

With `CC[C@@]1([C@@H]2O[C@@H]([C@H]3O[C@@](O)(CO)[C@H](C)C[C@@H]3C)C[C@@H]2C)CC[C@H]([C@]2(C)CC[C@]3(C[C@H](O)[C@@H](C)[C@@H]([C@@H](C)[C@@H](OC)[C@H](C)C(=O)O)O3)O2)O1` [monensin, reference compound] the “effect of monensin alone on substrate release (basal efflux)” value ([1]; monensin 10 μM alone, P < 0.05, Mann–Whitney test) was “significant albeit modest increase”.
For `CNC(C)C(O)c1ccc(C)cc1.Cl` (stereo not drawn) [Dihydromephedrone, 2‐(methylamino)‐1‐(p‐tolyl)propan‐1‐ol hydrochloride], the IC50 ([2]; IC50 on uptake mediated by hDAT, mean (95% confidence interval)) was 24 µM, the “efficacy of uptake inhibition at hDAT” value [2] was “fully efficacious inhibitors of uptake” and the “enhancement by monensin of drug-evoked [3H]-MPP+ release at hDAT (AUC)” value ([1]; test drug 10 μM, monensin 10 μM, post hoc Bonferroni) was “not”. The IC50 ([3]; IC50 on uptake mediated by hNET, mean (95% confidence interval)) was 24 µM and 23.5 µM, the “efficacy of uptake inhibition at hNET” value [3] was “fully efficacious inhibitors of uptake” and the “enhancement by monensin of drug-evoked [3H]-MPP+ release at hNET (AUC)” value [4] was “not”. The IC50 ([5]; IC50 on uptake mediated by hSERT, mean (95% confidence interval)) was 65 µM and the “efficacy of uptake inhibition at hSERT” value [5] was “fully efficacious inhibitors of uptake”.
